Data on 13 compounds can be found in US8673882B2, “Inhibitors of autotaxin” (University of Tennessee Research Foundation, priority 2011, dated 2014).

Assay type in all cases: biochemical
In one experiment the target is recombinant human ATX (Homo sapiens, UniProt Q13822). Kind of experiment: Autotaxin inhibition screening assay (FS-3 FRET substrate). As to conditions: 10 μM compound; 2 nM recombinant human ATX; 1 μM FS-3; 2 h, 37° C.; read-out: ATX Activity, % control (10 μM). Here is the method:
A 10 μM concentration of the compound is added to 2 nM recombinant human ATX and the FRET (Fluorescence Resonance Energy Transfer) ATX substrate FS-3.
As the first level of screen, 50 μl of recombinant-ATX (2 nM in final concentration) in assay buffer [(Tris 50 mM, NaCl 140 mM, KCl 5 mM, CaCl2 1 mM, MgCl2 1 mM (pH 8.0)] was mixed with 25 μL of FS-3 (Echelon Biosciences, Inc., Salt lake city, Utah), final concentration 1 μM, and 25 μl of test compound was dissolved in assay buffer with 40 μM bovine serum albumin (Sigma, St. Louis, Mo.) in 96-well Costar black-well plate. FS-3 fluorescence at excitation and emission wavelengths of 485 and 538 nm, respectively, were monitored using a FLEXstation II (Molecular Devices, Sunnyvale, Calif.) for 2 h of incubation at 37° C. The differences between time 0 and 120 min were calculated individually and normalized to the vehicle control. The mean±SD of triplicate samples was expressed as percentage of ATX activity. The ATX activity in the presence of the test compounds was compared to vehicle using the […] p<0.05 was considered significant.
The first level of testing was done using 10 μM concentrations of the compounds shown in Tables 1 and 2 added to 2 nM recombinant human ATX and the FRET substrate FS-3. After a 2 h incubation the amount of FS3 hydrolyzed was measured and the residual ATX activity was expressed as a percent of the vehicle-treated sample less the autolysis of FS3 in the absence of ATX.

A further experiment concerns the target T1, NPP6 (Homo sapiens, UniProt Q6UWR7).
T1 sequence (Q6UWR7 23-419): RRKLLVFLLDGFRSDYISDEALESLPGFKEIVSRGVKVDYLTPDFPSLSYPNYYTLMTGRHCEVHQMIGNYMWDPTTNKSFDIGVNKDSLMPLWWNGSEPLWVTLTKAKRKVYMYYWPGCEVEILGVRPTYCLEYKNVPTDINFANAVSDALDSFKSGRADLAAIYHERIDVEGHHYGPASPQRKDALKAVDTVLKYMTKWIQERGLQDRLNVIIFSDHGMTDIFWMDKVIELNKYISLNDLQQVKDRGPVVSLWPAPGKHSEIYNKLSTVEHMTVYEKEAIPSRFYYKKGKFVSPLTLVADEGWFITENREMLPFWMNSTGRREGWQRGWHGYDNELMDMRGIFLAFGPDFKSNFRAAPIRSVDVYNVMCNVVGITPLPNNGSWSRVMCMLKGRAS
Kind of experiment: NPP-6 inhibition assay (pNPPC substrate). The settings on record: 10 μM compound; 8.3 nM enzyme; 10 μM pNPPC; read-out: NPP6 Activity, % control (10 μM). How it is done: (§1) NPP6 and NPP7 are the only NPP isoforms other than ATX that are known to utilize lysophospholipid phosphodiesters as substrates. Therefore, the specificity of the chemical compounds of the invention regarding ATX was addressed by determining the activity of NPP6 and NPP7 in the presence and absence of these analogs.
(§2) Inhibition of NPP6 and NPP7 was evaluated using recombinant, purified proteins, the synthetic substrate para-nitrophenylphosphocholine (pNPPC) and a Synergy II plate reader (BioTek, Winooski, Vt.). The final concentration of each enzyme was 8.3 nM and pNPPC was 10 μM. All analogs were tested at single 10 μM concentrations. Absorbance of liberated para-nitrophenol at 405 nm was determined up to 1 hour (where responses were linear) and was normalized to vehicle control.

The target of the next experiment is T2, NPP7 (Homo sapiens, UniProt Q6UWV6).
T2 sequence (Q6UWV6 22-458): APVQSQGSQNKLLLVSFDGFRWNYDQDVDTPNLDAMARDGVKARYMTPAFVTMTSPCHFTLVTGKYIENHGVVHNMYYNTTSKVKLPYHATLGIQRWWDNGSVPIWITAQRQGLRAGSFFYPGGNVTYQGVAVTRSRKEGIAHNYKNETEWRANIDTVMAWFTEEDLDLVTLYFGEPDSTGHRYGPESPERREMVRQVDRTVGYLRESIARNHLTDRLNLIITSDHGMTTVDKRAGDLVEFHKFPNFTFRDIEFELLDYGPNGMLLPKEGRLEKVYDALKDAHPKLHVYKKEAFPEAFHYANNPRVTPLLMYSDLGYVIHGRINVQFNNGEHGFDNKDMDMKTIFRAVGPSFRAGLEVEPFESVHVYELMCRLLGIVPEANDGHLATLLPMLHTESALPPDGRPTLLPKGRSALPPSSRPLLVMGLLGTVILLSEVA
Nature of the experiment: NPP-7 inhibition assay (pNPPC substrate). The settings on record: 10 μM compound; 8.3 nM enzyme; 10 μM pNPPC; read-out: NPP7 Activity, % control (10 μM). How it is done: as §1, §2

Experiment [1] deals with recombinant, purified human ATX (Homo sapiens, UniProt Q13822). Kind of experiment: Mechanism of autotaxin inhibition (IC50, Ki, Ki′; FS-3 hydrolysis). As to conditions: for IC50: 8.3 nM ATX, 1 μM FS-3, 15 μM BSA; for ATX Mechanism of inhibition: FS-3 0.3 μM to 20 μM, inhibitor 0, 0.5× and 2× IC50. How it is done:
The mechanism of inhibition of ATX was determined using recombinant, purified human ATX and FS-3. Final ATX and FS-3 concentrations were 8.3 nM and 1 μM, respectively and the assay buffer with 15 μM fatty acid tree BSA. To calculate IC50, full dose responses were determined for the test compounds. […] Simultaneous non-linear regression, using, WinNonLin® 6.1 (Pharsight, Mountain View, Calif.) was used to assign the mechanism of inhibition. Ki and Ki′ values (the affinity for free enzyme and enzyme substrate complex, respectively) were determined by calculating the lowest averaged percent residuals for each mechanism derived from curve fitting using the Michealis-Menten equations for competitive, uncompetitive, mixed-mode, and non-competitive inhibition.

Where [2] appears, read: affinity for enzyme substrate complex.

Consider `CCCCCCCCCCCCCCCCS(=O)(=O)Nc1ccc(CP(=O)(O)O)cc1` [Compound 4, 4-(Hexadecane-1-sulfonylamino)benzyl phosphonic acid], for which the remaining activity at 10 µM on recombinant human ATX turned out to be 24.1%; at NPP6, 102%; on NPP7, 93.5%.

As for `CCCCCCCCCCCCCCOc1ccc(CP(=O)(O)O)cc1` [Compound 10, 4-(Tetradecyloxy)benzylphosphonic acid], the remaining activity at 10 µM stood at 102% at NPP6 and 101% at NPP7.

Regarding `CCCCCCCCCCCCC/C=C/c1ccc(CP(=O)(O)O)cc1` [Compound 18, (E)-4-(Pentadec-1-enyl)benzylphosphonic acid], the values for the remaining activity at 10 µM at recombinant human ATX, on NPP6 and on NPP7 were 18.8%, 104% and 97.7%, respectively.

`CCCCCCCCCC/C=C/c1ccc2cc(CP(=O)(O)O)ccc2c1` [Compound 30a, (E)-6-Dodec-1-enyl-naphthalen-2-yl-methylphosphonic acid]: the remaining activity at 10 µM on recombinant human ATX is 61.3%; on NPP6, 103%; on NPP7 it was 100%.

As for `CCCCCCCCCCCCc1ccc2cc(CP(=O)(O)O)ccc2c1` [Compound 34a, 6-Dodecylnaphthalen-2-yl-methylphosphonic acid], the remaining activity at 10 µM on recombinant human ATX was determined as 19.9%; on NPP6, 101%; at NPP7, 98.8%.

`CCCCCCCCCCCCCc1ccc2cc(CP(=O)(O)O)ccc2c1` [Compound 34b, 6-Tridecylnaphthalen-2-yl-methylphosphonic acid]: the remaining activity at 10 µM was 50.8% on recombinant human ATX, 100% at NPP6 and 94.7% on NPP7.

Take `CCCCCCCCCCCCCCCc1ccc(C(O)P(=O)(O)O)cc1` (stereo not shown) [Compound 37, Hydroxy-4-pentadecylphenylmethylphosphonic acid]: the remaining activity at 10 µM on recombinant human ATX was determined as 9.2%; on NPP6 it was 99.6%; at NPP7, 101%. Further, the half-maximal inhibitory concentration (IC50) (in general, the concentration at which inhibition is half-maximal) in experiment [1] was determined as 0.73 µM. Further, in experiment [1], the “ATX Mechanism of inhibition” value was “Mixed”. Besides, the Ki (in general, the equilibrium dissociation constant of an inhibitor or competing ligand from its target) in experiment [1] (setting [2]) came out at 0.7 µM; in experiment [1] (affinity for free enzyme), 0.45 µM.

On to `CCCCCCCCCCCCCCCc1ccc(C(F)P(=O)(O)O)cc1` (stereo not shown) [Compound 41, Fluoro-4-pentadecylphenylmethyl phosphonic acid], for which the remaining activity at 10 µM is 42.3% on recombinant human ATX, 101% on NPP6 and 103% at NPP7. For the same compound, the IC50 in experiment [1] was found to be 17.9 µM. Also, the “ATX Mechanism of inhibition” value in experiment [1] is recorded as “Mixed”. In addition, the Ki in experiment [1] (setting [2]) was 5.54 µM; in experiment [1] (affinity for free enzyme), 4.97 µM.

As for `CCCCCCCCCCCCCCCc1ccc(C(Cl)P(=O)(O)O)cc1` (stereo not shown) [Compound 42, Chloro-4-pentadecylphenylmethyl phosphonic acid], the remaining activity at 10 µM turned out to be 118% at recombinant human ATX, 101% on NPP6 and 99.9% at NPP7.

As to `CCCCCCCCCCCCCCCc1ccc(C(Br)P(=O)(O)O)cc1` (stereo not shown) [Compound 43, Bromo-4-pentadecylphenylmethyl phosphonic acid], the remaining activity at 10 µM amounted to 60.1% on recombinant human ATX, 99.3% at NPP6 and 99.5% at NPP7. The IC50 in experiment [1] worked out at 10.1 µM. In addition, in experiment [1], the “ATX Mechanism of inhibition” value is on record as “Mixed”. The Ki in experiment [1] (setting [2]) amounted to 2.97 µM; in experiment [1] (affinity for free enzyme) it was 6.1 µM.

For `CCCCCCCCCCCCCCCc1ccc(COP(=O)(O)O)cc1` [Compound 45, 4-pentadecylbenzyl dihydrogen phosphate], the remaining activity at 10 µM was found to be 85.2% on recombinant human ATX, 101% on NPP6 and 98.8% at NPP7.

Turning to `CCCCCCCCCCCCCCCc1ccc(COP(O)(O)=S)cc1` [Compound 47, O-4-pentadecylbenzyl O,O-dihydrogen phosphorothioate], the IC50 in experiment [1] turned out to be 1.54 µM. Further, the “ATX Mechanism of inhibition” value in experiment [1] is “Mixed”. In addition, the Ki was found to be 4.43 µM in experiment [1] (setting [2]) and 4.45 µM in experiment [1] (affinity for free enzyme). For the same compound, the figures for the remaining activity at 10 µM on NPP6 and on NPP7 were 98.8% and 92.9%, respectively.

Take `CCCCCCCCCCCCCC(=O)Nc1ccc(CP(=O)(O)O)cc1` [Compound S32826, 4-tetradecanoylaminobenzyl phosphonic acid, reference compound]: the remaining activity at 10 µM on NPP6 was 102%; on NPP7, 101%.
